{"source": "paper PMC10041525", "about": "“New Dual Inhibitors of Bacterial Topoisomerases with Broad-Spectrum Antibacterial Activity and In Vivo Efficacy against Vancomycin-Intermediate Staphylococcus aureus” (Journal of Medicinal Chemistry, 2023)", "key": {"[1]": {"test_system": "Haemophilus influenzae (n = 14)", "experiment": "MIC broth microdilution at IHMA Europe", "format": "cell-based, H. influenzae", "conditions": "for MIC: Haemophilus influenzae, read-out: MIC"}, "E. faecium (n = 13)": {"test_system": "E. faecium (n = 13)", "experiment": "MIC broth microdilution at IHMA Europe", "format": "cell-based", "conditions": "for MIC: Enterococcus faecium, read-out: MIC"}, "S. pneumoniae (n = 12)": {"test_system": "S. pneumoniae (n = 12)", "experiment": "MIC broth microdilution at IHMA Europe", "format": "cell-based", "conditions": "for MIC: Streptococcus pneumoniae, read-out: MIC"}, "E. faecalis ATCC 29212 [2]": {"test_system": "E. faecalis ATCC 29212", "experiment": "IHMA QC MIC", "format": "cell-based", "description": "Supplement jm2c01905_si_004.xlsx, sheet \"QC\" | column: MIC [µg/mL]"}, "E. coli ATCC 25922": {"test_system": "E. coli ATCC 25922", "set-up": "method as in earlier work", "conditions": "QC range for E. coli ATCC 25922, ref CLSI; cited from earlier work"}, "E. faecalis ATCC 29212 [3]": {"test_system": "E. faecalis ATCC 29212", "set-up": "method as in earlier work", "conditions": "QC range for E. faecalis ATCC 29212, ref CLSI; cited from earlier work"}, "H. influenzae ATCC 49247": {"test_system": "H. influenzae ATCC 49247", "set-up": "method as in earlier work", "conditions": "QC range for H. influenzae ATCC 49247, ref CLSI; cited from earlier work"}}, "note": "Like-named read-outs stand apart in the source and are kept apart here."}
{"smiles": "CC1(C)S[C@@H]2[C@H](NC(=O)[C@H](N)c3ccccc3)C(=O)N2[C@H]1C(=O)O", "note": "[Ampicillin, ampicillin]", "values": [{"measurement": "MIC", "setting": "[1]; H. influenzae IHMA N° 1227715", "value": 16, "unit": "µg/mL"}, {"measurement": "MIC", "setting": "[1]; H. influenzae IHMA N° 1241620", "value": 4, "unit": "µg/mL"}, {"measurement": "MIC", "setting": "[1]; H. influenzae IHMA N° 1244149", "value": 16, "unit": "µg/mL"}, {"measurement": "MIC", "setting": "[1]; H. influenzae IHMA N° 1249803", "value": 2, "unit": "µg/mL"}, {"measurement": "MIC", "setting": "[1]; H. influenzae IHMA N° 1254355", "value": 2, "unit": "µg/mL"}, {"measurement": "MIC", "setting": "[1]; H. influenzae IHMA N° 1258580", "value": 16, "unit": "µg/mL"}, {"measurement": "MIC", "setting": "[1]; H. influenzae IHMA N° 1262734", "value": 8, "unit": "µg/mL"}, {"measurement": "MIC", "setting": "[1]; H. influenzae IHMA N° 1272723", "value": 16, "unit": "µg/mL"}, {"measurement": "MIC", "setting": "[1]; H. influenzae IHMA N° 1286846", "value": 8, "unit": "µg/mL"}, {"measurement": "MIC", "setting": "[1]; H. influenzae IHMA N° 1337530", "value": 32, "unit": "µg/mL"}, {"measurement": "MIC", "setting": "[1]; H. influenzae IHMA N° 1440085", "value": 8, "unit": "µg/mL"}, {"measurement": "MIC", "setting": "[1]; H. influenzae IHMA N° 1479509", "value": 8, "unit": "µg/mL"}, {"measurement": "MIC", "setting": "[1]; H. influenzae IHMA N° 1952952", "value": 4, "unit": "µg/mL"}, {"measurement": "MIC", "setting": "[1]; H. influenzae IHMA N° 2047461", "value": 32, "unit": "µg/mL"}, {"measurement": "Cumulative % at MIC", "setting": "[1]; MIC 2 µg/mL", "value": 14.3, "unit": "%"}, {"measurement": "No. of isolates at MIC", "setting": "[1]; MIC 2 µg/mL", "value": 2}, {"measurement": "Cumulative % at MIC", "setting": "[1]; MIC […] µg/mL", "value": 85.7, "unit": "%"}, {"measurement": "No. of isolates at MIC", "setting": "[1]; MIC […] µg/mL", "value": 4}, {"measurement": "Cumulative % at MIC", "setting": "[1]; MIC 32 µg/mL", "value": 100.0, "unit": "%"}, {"measurement": "No. of isolates at MIC", "setting": "[1]; MIC 32 µg/mL", "value": 2}, {"measurement": "MIC", "setting": "E. faecium (n = 13); E. faecium IHMA N° 1764866", "value": "> 32", "unit": "µg/mL"}, {"measurement": "MIC", "setting": "E. faecium (n = 13); E. faecium IHMA N° 1765436", "value": "> 32", "unit": "µg/mL"}, {"measurement": "MIC", "setting": "E. faecium (n = 13); E. faecium IHMA N° 1765746", "value": "> 32", "unit": "µg/mL"}, {"measurement": "MIC", "setting": "E. faecium (n = 13); E. faecium IHMA N° 1893573", "value": "> 32", "unit": "µg/mL"}, {"measurement": "MIC", "setting": "E. faecium (n = 13); E. faecium IHMA N° 1893846", "value": "> 32", "unit": "µg/mL"}, {"measurement": "MIC", "setting": "E. faecium (n = 13); E. faecium IHMA N° 1893942", "value": "> 32", "unit": "µg/mL"}, {"measurement": "MIC", "setting": "E. faecium (n = 13); E. faecium IHMA N° 1894055", "value": "> 32", "unit": "µg/mL"}, {"measurement": "MIC", "setting": "E. faecium (n = 13); E. faecium IHMA N° 1897027", "value": "> 32", "unit": "µg/mL"}, {"measurement": "MIC", "setting": "E. faecium (n = 13); E. faecium IHMA N° 1897101", "value": "> 32", "unit": "µg/mL"}, {"measurement": "MIC", "setting": "E. faecium (n = 13); E. faecium IHMA N° 1904592", "value": "> 32", "unit": "µg/mL"}, {"measurement": "MIC", "setting": "E. faecium (n = 13); E. faecium IHMA N° 2075051", "value": "> 32", "unit": "µg/mL"}, {"measurement": "MIC", "setting": "E. faecium (n = 13); E. faecium IHMA N° 2077718", "value": "> 32", "unit": "µg/mL"}, {"measurement": "MIC", "setting": "E. faecium (n = 13); E. faecium IHMA N° 2083787", "value": "> 32", "unit": "µg/mL"}, {"measurement": "Cumulative % at MIC", "setting": "E. faecium (n = 13); MIC >32 µg/mL", "value": 100.0, "unit": "%"}, {"measurement": "No. of isolates at MIC", "setting": "E. faecium (n = 13); MIC >32 µg/mL", "value": 13}, {"measurement": "Cumulative % at MIC", "setting": "S. pneumoniae (n = 12); MIC 0.5 µg/mL", "value": 25.0, "unit": "%"}, {"measurement": "No. of isolates at MIC", "setting": "S. pneumoniae (n = 12); MIC 0.5 µg/mL", "value": 2}, {"measurement": "Cumulative % at MIC", "setting": "S. pneumoniae (n = 12); MIC 1 µg/mL", "value": 33.3, "unit": "%"}, {"measurement": "No. of isolates at MIC", "setting": "S. pneumoniae (n = 12); MIC 1 µg/mL", "value": 1}, {"measurement": "Cumulative % at MIC", "setting": "S. pneumoniae (n = 12); MIC 2 µg/mL", "value": 66.7, "unit": "%"}, {"measurement": "No. of isolates at MIC", "setting": "S. pneumoniae (n = 12); MIC 2 µg/mL", "value": 4}, {"measurement": "No. of isolates at MIC", "setting": "S. pneumoniae (n = 12); MIC […] µg/mL", "value": 2}, {"measurement": "Cumulative % at MIC", "setting": "S. pneumoniae (n = 12); MIC ≤0.03 µg/mL", "value": 8.3, "unit": "%"}, {"measurement": "No. of isolates at MIC", "setting": "S. pneumoniae (n = 12); MIC ≤0.03 µg/mL", "value": 1}, {"measurement": "MIC", "setting": "S. pneumoniae (n = 12); S. pneumoniae IHMA N° 1775387", "value": 4, "unit": "µg/mL"}, {"measurement": "MIC", "setting": "S. pneumoniae (n = 12); S. pneumoniae IHMA N° 1776057", "value": 2, "unit": "µg/mL"}, {"measurement": "MIC", "setting": "S. pneumoniae (n = 12); S. pneumoniae IHMA N° 1785617", "value": 8, "unit": "µg/mL"}, {"measurement": "MIC", "setting": "S. pneumoniae (n = 12); S. pneumoniae IHMA N° 1800765", "value": 0.5, "unit": "µg/mL"}, {"measurement": "MIC", "setting": "S. pneumoniae (n = 12); S. pneumoniae IHMA N° 1811259", "value": 2, "unit": "µg/mL"}, {"measurement": "MIC", "setting": "S. pneumoniae (n = 12); S. pneumoniae IHMA N° 1831562", "value": "≤ 0.03", "unit": "µg/mL"}, {"measurement": "MIC", "setting": "S. pneumoniae (n = 12); S. pneumoniae IHMA N° 1902609", "value": 4, "unit": "µg/mL"}, {"measurement": "MIC", "setting": "S. pneumoniae (n = 12); S. pneumoniae IHMA N° 1979675", "value": 2, "unit": "µg/mL"}, {"measurement": "MIC", "setting": "S. pneumoniae (n = 12); S. pneumoniae IHMA N° 1991963", "value": 1, "unit": "µg/mL"}, {"measurement": "MIC", "setting": "S. pneumoniae (n = 12); S. pneumoniae IHMA N° 2057487", "value": 2, "unit": "µg/mL"}, {"measurement": "MIC", "setting": "S. pneumoniae (n = 12); S. pneumoniae IHMA N° 2073087", "value": 8, "unit": "µg/mL"}, {"measurement": "MIC", "setting": "S. pneumoniae (n = 12); S. pneumoniae IHMA N° 2117109", "value": 0.5, "unit": "µg/mL"}, {"measurement": "MIC", "setting": "E. faecalis ATCC 29212 [2]; Enterococcus faecalis, ATCC29212, QC strain E. faecalis ATCC 29212, test date 2021-11-11, read-out: MIC", "value": 1, "unit": "µg/mL"}, {"measurement": "MIC", "setting": "E. faecalis ATCC 29212 [2]; QC strain E. faecalis ATCC 29212, test date 2021-11-26", "value": 1, "unit": "µg/mL"}, {"measurement": "MIC, CLSI Range", "setting": "E. coli ATCC 25922", "value": "2 to 8", "unit": "µg/mL"}, {"measurement": "MIC, CLSI Range", "setting": "E. faecalis ATCC 29212 [3]", "value": "0,5 - 2 µg/mL"}, {"measurement": "MIC, CLSI Range", "setting": "H. influenzae ATCC 49247", "value": "2 to 8", "unit": "µg/mL"}]}
